Structures are written as SMILES.

The conditions of series [1]: rats, [11C]-labeled; cited from earlier work.
The nature of series [2]: partition coefficient based on the octanol extraction method. As to conditions: octanol / 10 mmol/L phosphate buffer pH 7.4. It is filed as physicochemical. Here is the method:
Partition coefficients based on the octanol extraction method (hereinafter referred to as log Poctanol) were measured, which are generally known as an indicator of permeability of compounds through the blood-brain barrier (hereinafter referred to as BBB).
A diethyl ether solution of Compound 1 prepared in Example 3 (Example 8), a diethyl ether solution of Compound 2 prepared in Example 6 (Example 9), and a diethyl ether solution of [^123I]-IMPY prepared in Reference Example 1 (Comparative Example 4) were each diluted with 10 mg/mL ascorbic acid-containing physiological saline solution, and adjusted to a radioactive concentration of 20-30 MBq/mL. To 2 mL of octanol, 10 μL each of the prepared sample solutions was added, 2 mL of 10 mmol/L phosphate buffer (pH 7.4) was added, followed by stirring for 30 seconds. After the mixture was centrifuged with a low-speed centrifuge (2000 rpm×60 min.), the octanol layer and the water layer were sampled each in an amount of 1 mL, and subjected to measurement of radioactivity count with an autowell gamma system (Type: ARC-301B, manufactured by Aloka). Using the obtained radioactivity count, log Poctanol was calculated in accordance with the equation (2).
A diethyl ether solution (Example 20) of Compound 4 prepared in Example 16, a diethyl ether solution (Example 21) of Compound 6 prepared in Example 19, and a diethyl ether solution (Comparative Example 7) of [^123I]-IMPY were each diluted with a 10 mg/mL ascorbic acid-containing physiological saline solution to adjust to a radioactive concentration of 20-30 MBq/mL. To 2 mL of octanol, 10 μL each of the prepared sample solution was added, and 2 mL of 10 mmol/L phosphate buffer (pH 7.4) was further added, followed by stirring for 30 seconds. After the mixture was centrifuged with a low-speed centrifuge (2000 rpm×60 min.), the octanol layer and the water layer were sampled each in an amount of 1 mL, and subjected to measurement of radioactivity count with an autowell gamma system (Type: ARC-301B, manufactured by Aloka). Using the obtained radioactivity count, log Poctanol was calculated in accordance with the equation (4).

A short description of series [3]: transferability into brain and clearance after intravenous injection. To be noted: male Wistar rats, intravenous injection. It is filed as in vivo, rat. The procedure: Using Compound 1 (Example 10) and Compound 2 (Example 11), a time course change of radioactive accumulation in brain of male Wistar rats (7-week old) was measured.
A diethyl ether solution of Compound 1 (Example 10) prepared in Example 3, a diethyl ether solution of Compound 2 (Example 11) prepared in Example 6 and a diethyl ether solution of [^123I]-IMPY (Comparative Example 5) prepared in Reference Example 1 were each diluted with 10 mg/mL ascorbic acid-containing physiological saline solution to adjust to a radioactive concentration of 8-12 MBq/mL. 0.05 mL each of the prepared sample solutions was injected under thiopental anesthesia into the tail vein of the rats. The rats were sacrificed by bleeding from abdominal artery, and brains were removed and subjected to measurement of mass of brains and further subjected to measurement of radioactivity (hereinafter referred to as A in this Example) with a single channel analyzer (detector type: SP-20 manufactured by OHYO KOKEN KOGYO Co., Ltd.) 2, 5, 30 and 60 minutes after the injection. Further, the radioactivity level of the rest of the whole body was measured in the same manner as above (hereinafter referred to as B in this Example). Using these measurement results, radioactive distribution per unit weight of brain (% ID/g) at the respective time points were calculated in accordance with the following formula (3).
Three animals were used for the experiment at the respective time points.
Using Compound 4 and Compound 6, a time course change of radioactive accumulation in brain of male Wistar rats (7-week old) was measured.
Compound 4 (Example 22), Compound 6 (Example 23) and a solution of [^123I]-IMPY (Comparative Example 8) prepared above in Reference Example 1 were each diluted with a 10 mg/mL ascorbic acid-containing physiological saline solution to prepare solutions (20-31 MBq/mL in radioactive concentration). 0.05 mL each of the prepared sample solutions was injected under thiopental anesthesia into the tail vein of the respective Wistar rat (7-week old). The rats were sacrificed by bleeding from abdominal artery, and brains were removed and subjected to measurement of mass of brains and further subjected to measurement of radioactivity (hereinafter referred to as A in this Example) with a single channel analyzer (detector type: SP-20 manufactured by OHYO KOKEN KOGYO Co., Ltd.) 2, 5, 30 and 60 minutes after the injection. Further, the radioactivity level of the rest of the whole body was measured in the same manner as above (hereinafter referred to as B in this Example). Using these measurement results, radioactive distribution per unit weight of brain (% ID/g) at the respective time points were calculated in accordance with the following formula (5).

Series [4] deals with T1, amyloid (aggregated Aβ1-40) injected into amygdaloid nucleus (Homo sapiens, UniProt P05067).
T1 construct: Aβ1-40 (manufactured by Peptide Institute, INC.) was dissolved in phosphate buffer (pH 7.4); purchased Peptide Institute, INC
T1 sequence (P05067 672-711): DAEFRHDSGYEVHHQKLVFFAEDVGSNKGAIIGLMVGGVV
In words: ex vivo autoradiogram using rats of amyloid injected model (Aβ1-40). It is filed as in vivo, rat. To be noted: brain slice 60 minutes after intravenous injection, Aβ1-40. Here is the method: (§1) (1) Aβ1-40 (manufactured by Peptide Institute, INC.) was dissolved in phosphate buffer (pH 7.4) and shaken at 37° C. for 72 hours, to obtain a 1 mg/mL suspension of aggregated Aβ (hereinafter referred to as amyloid suspension in this Example).
(§2) (2) 2.5 μL (corresponding to […]) of the amyloid suspension was injected into an amygdaloid nucleus on one side of a male Wistar rat (7-week old). As a control, 2.5 μL of a phosphate buffered physiological saline solution (pH 7.4) was injected into an amygdaloid nucleus on the other side of the rat. The rats were examined 1 day after the injection of the amyloid suspension and the phosphate buffered physiological saline solution (pH 7.4).
(§3) (3) [^123I]-IMPY was dissolved in a 10 mg/mL ascorbic acid-containing physiological saline solution to obtain a sample solution (29 MBq/mL in radioactivity concentration in the sample solution). This solution was injected under thiopental anesthesia into the rat through the tail vein (dosage: 0.5 mL, dosed radioactivity: 14.5 MBq equivalent).
(§4) (4) Brain was removed 60 minutes after the injection to prepare a brain slice of 10 μm in thickness with a microtome (type: CM3050S, manufactured by LEICA). The brain slice was exposed to an imaging plate for 20 hours, and then image analysis was carried out by use of a Bio-imaging Analyzer (type: BAS-2500; manufactured by FUJIFILM Corporation). […]

Series [5] relates to amyloid (aggregated Aβ1-40) injected into amygdaloid nucleus. Described as above. Format: in vivo, rat. As to conditions: brain slice 60 minutes after intravenous injection. The procedure: as §1, §2, §3, §4

Turning to `CNc1ccc(/C=C/c2ccc(O)cc2)cc1` [SB-13, (E)-4-methylamino-4′-hydroxystilbene], the “clearance from normal tissues” value in series [1] is listed as “it cannot be said that the clearance is sufficiently fast”.

With `CN(C)c1ccc(-c2cn3cc([123I])ccc3n2)cc1` [[^123I]-IMPY, reference compound], the logPoctanol value in series [2] (Table 4 (Examples 8-9, Comparative Example 4)) turned out to be 1.9. Also, in series [2] (Table 6 (Examples 20-21, Comparative Example 7)), the logPoctanol value turned out to be 2.1. For the same compound, in series [3] (Table 5), the “Radioactive distribution per unit weight in brain, After 2 min.” value is 1.19 % ID/g; the “Radioactive distribution per unit weight in brain, After 5 min.” value is reported as 0.97 % ID/g; the “Radioactive distribution per unit weight in brain, After 30 min.” value was found to be 0.23 % ID/g; the “Radioactive distribution per unit weight in brain, After 60 min.” value was 0.09 % ID/g. For the same compound, in series [3] (Table 7), the “Radioactive distribution per unit weight in brain, After 2 min.” value came to 1.19 % ID/g; the “Radioactive distribution per unit weight in brain, After 5 min.” value stood at 0.97 % ID/g; the “Radioactive distribution per unit weight in brain, After 30 min.” value is listed as 0.23 % ID/g; the “Radioactive distribution per unit weight in brain, After 60 min.” value worked out at 0.09 % ID/g. Also, the “accumulation of radioactivity in amygdaloid nucleus on the amyloid-injected side” value in series [4] is “marked accumulation of radioactivity”. Further, in series [5], the “accumulation in white matter where amyloid was not injected” value is “non-specific accumulation was observed”.

(Values after US8207189B2, “Compound having affinity for amyloid” (Nihon Medi-Physics Co., Ltd., priority 2007, dated 2012).)
